Data reported in ChEMBL document CHEMBL5150005, “Discovery of 5-{4-[(7-Ethyl-6-oxo-5,6-dihydro-1,5-naphthyridin-3-yl)methyl]piperazin-1-yl}-N-methylpyridine-2-carboxamide (AZD5305): A PARP1-DNA Trapper with High Selectivity for PARP1 over PARP2 and Other PARPs” (J Med Chem, 2021).
Converted amounts (≈) assume the structure as drawn. The source made the active and inactive calls. No cut-off for these calls is given here.

How the values were obtained:
[1] = biological target: Protein mono-ADP-ribosyltransferase PARP3 (Homo sapiens) (UniProt Q9Y6F1); assay: Binding affinity to PARP3 (unknown origin) assessed as apparent dissociation constant
[2] = Unbound clearance in mouse; format: ADME, organism-based; conditions: in vivo
[3] = Plasma clearance in mouse; format: ADME, organism-based
physchem = conditions: buffer, pH 7.4
[4] = Aqueous solubility of the compound at pH 7.4; format: physicochemical; conditions: buffer
[5] = Oral bioavailability in rat; format: ADME, organism-based; conditions: in vivo
[6] = Half life in mouse; format: ADME, organism-based; conditions: in vivo
[7] = Antitumor activity against patient derived explant HBCx-17 cells xenografted in mouse assessed as tumor regression administered daily at 0.03 mg/kg, po for 25 days relative to control; format: functional, Homo sapiens; conditions: time 25 day
[8] = biological target: Protein mono-ADP-ribosyltransferase PARP9 (Homo sapiens, UniProt Q8IXQ6)
[9] = Unbound clearance in dog; format: ADME, Canis lupus familiaris; conditions: in vivo
[10] = Oral bioavailability in dog; format: ADME, organism-based, Canis lupus familiaris; conditions: in vivo
[11] = biological target: Protein mono-ADP-ribosyltransferase PARP14 (Homo sapiens) (UniProt Q460N5)
[12] = Volume of distribution at steady state in dog; format: ADME, Canis lupus familiaris; conditions: in vivo, read-out: Vdss
[13] = biological target: Protein mono-ADP-ribosyltransferase PARP4 (Homo sapiens) (UniProt Q9UKK3); assay: Binding affinity to PARP4 (unknown origin) assessed as apparent dissociation constant
[14] = Half life in rat; format: ADME; conditions: in vivo
in vitro [15] = conditions: human, liver microsomes
[16] = Volume of distribution at steady state in monkey; format: ADME, Macaca mulatta; conditions: rhesus monkey, in vivo; read-out: Vdss
[17] = biological target: Protein mono-ADP-ribosyltransferase PARP12 (Homo sapiens) (UniProt Q9H0J9)
[18] = Hematotoxicity in CD34+ hematopoietic stem/progenitor cells (unknown origin) assessed as reduction of cell viability treated at 3 nM for 5 days by cell-tire-Glo-2.0 luminescence based assay; format: toxicity; conditions: cd34-positive hematopoietic stem/progenitor cell, 120 h, 0.003 µM, time 5 day
[19] = Oral bioavailability in monkey; format: ADME, organism-based, Macaca mulatta; conditions: rhesus monkey, in vivo
[20] = Half life in monkey; format: ADME, Macaca mulatta; conditions: rhesus monkey, in vivo
DLD-1 = assay: Antiproliferative activity against human DLD-1 deficient in BRCA-2 cells measured after 7 days; format: functional, cell-based; conditions: Homo sapiens, DLD-1, 168 h
[21] = Oral bioavailability in mouse; format: ADME, organism-based; conditions: in vivo
[22] = Volume of distribution at steady state in mouse; format: ADME, organism-based; conditions: in vivo, read-out: Vdss
[23] = Hematotoxicity in CD34+ hematopoietic stem/progenitor cells (unknown origin) assessed as remaining viable cells treated at 100 nM for 5 days by cell-tire-Glo-2.0 luminescence based assay relative to control; format: toxicity, CD34-positive hematopoietic stem/progenitor cell; conditions: time 5 day, read-out: Activity
[24] = Plasma clearance in rat; format: ADME
[25] = Plasma clearance in dog; format: ADME, Canis lupus familiaris
[26] = Intrinsic clearance in human hepatocytes measured per million of cells; format: ADME, cell-based, Hepatocyte; conditions: read-out: CLH
in vitro [27] = conditions: rat, plasma
[28] = Half life in dog; format: ADME, Canis lupus familiaris; conditions: in vivo
in vitro [29] = conditions: dog, plasma
[30] = Antitumor activity against patient derived explant HBCx-17 cells xenografted in mouse assessed as tumor regression administered daily at 10 mg/kg, po for 25 days relative to control; format: functional, Homo sapiens; conditions: time 25 day
[31] = Antitumor activity against patient derived explant HBCx-17 cells xenografted in mouse assessed as tumor regression administered daily at 1 mg/kg, po for 25 days relative to control; format: functional, Homo sapiens; conditions: time 25 day
[32] = Unbound clearance in monkey; format: ADME, Macaca mulatta; conditions: rhesus monkey, in vivo
[33] = biological target: Protein mono-ADP-ribosyltransferase PARP10 (Homo sapiens, UniProt Q53GL7); assay: Binding affinity to PARP10 (unknown origin) assessed as apparent dissociation constant; conditions: read-out: Kd(app)
[34] = Hematotoxicity in CD34+ hematopoietic stem/progenitor cells (unknown origin) assessed as reduction of cell viability treated for 5 days by cell-tire-Glo-2.0 luminescence based assay; format: toxicity, CD34-positive hematopoietic stem/progenitor cell; conditions: cd34-positive hematopoietic stem/progenitor cell, 120 h; DDE = dose-dependent effect; dose lower 1e-05 µM, dose upper 100 µM, time 5 day
in vitro [35] = conditions: rhesus monkey, plasma
[36] = Unbound clearance in rat; format: ADME; conditions: in vivo
[37] = biological target: Protein mono-ADP-ribosyltransferase PARP16 (Homo sapiens) (UniProt Q8N5Y8); assay: Binding affinity to PARP16 (unknown origin) assessed as apparent dissociation constant
[38] = Antitumor activity against patient derived explant HBCx-17 cells xenografted in mouse assessed as tumor regression administered daily at 0.1 mg/kg, po for 25 days relative to control; format: functional, Homo sapiens; conditions: time 25 day
[39] = biological target: T1, Protein mono-ADP-ribosyltransferase PARP8 (Homo sapiens) (UniProt Q8N3A8)
T1 sequence (whole entry): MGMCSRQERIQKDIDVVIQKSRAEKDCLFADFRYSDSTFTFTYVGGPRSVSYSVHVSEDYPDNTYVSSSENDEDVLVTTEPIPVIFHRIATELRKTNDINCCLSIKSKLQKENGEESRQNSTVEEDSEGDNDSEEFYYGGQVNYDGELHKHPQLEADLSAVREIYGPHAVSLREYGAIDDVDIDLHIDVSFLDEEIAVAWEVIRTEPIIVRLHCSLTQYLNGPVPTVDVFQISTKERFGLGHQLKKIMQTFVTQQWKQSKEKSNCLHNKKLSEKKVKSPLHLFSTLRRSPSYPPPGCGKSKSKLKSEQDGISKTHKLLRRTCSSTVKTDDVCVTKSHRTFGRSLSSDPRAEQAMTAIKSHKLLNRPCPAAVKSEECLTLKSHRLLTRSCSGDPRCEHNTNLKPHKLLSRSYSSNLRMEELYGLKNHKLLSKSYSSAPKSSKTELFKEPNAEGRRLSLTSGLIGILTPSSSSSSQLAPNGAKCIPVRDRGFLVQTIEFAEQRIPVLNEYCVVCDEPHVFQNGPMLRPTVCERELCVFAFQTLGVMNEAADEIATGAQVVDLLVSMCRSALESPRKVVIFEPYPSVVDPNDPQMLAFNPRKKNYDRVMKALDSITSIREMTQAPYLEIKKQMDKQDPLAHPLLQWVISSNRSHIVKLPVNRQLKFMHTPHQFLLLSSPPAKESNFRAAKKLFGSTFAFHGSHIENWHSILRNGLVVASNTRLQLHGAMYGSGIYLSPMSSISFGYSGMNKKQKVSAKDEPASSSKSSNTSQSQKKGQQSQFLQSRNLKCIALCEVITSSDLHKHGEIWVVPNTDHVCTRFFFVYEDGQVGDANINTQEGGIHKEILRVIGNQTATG

[40] = Volume of distribution at steady state in rat; format: ADME; conditions: in vivo, read-out: Vdss
[41] = biological target: Poly [ADP-ribose] polymerase tankyrase-1 (Homo sapiens) (UniProt O95271); assay: Binding affinity to PARP5a (unknown origin) assessed as apparent dissociation constant
[42] = Plasma clearance in monkey; format: ADME, Macaca mulatta; conditions: rhesus monkey

Sequence of Protein mono-ADP-ribosyltransferase PARP14 (Homo sapiens) (Q460N5 whole entry): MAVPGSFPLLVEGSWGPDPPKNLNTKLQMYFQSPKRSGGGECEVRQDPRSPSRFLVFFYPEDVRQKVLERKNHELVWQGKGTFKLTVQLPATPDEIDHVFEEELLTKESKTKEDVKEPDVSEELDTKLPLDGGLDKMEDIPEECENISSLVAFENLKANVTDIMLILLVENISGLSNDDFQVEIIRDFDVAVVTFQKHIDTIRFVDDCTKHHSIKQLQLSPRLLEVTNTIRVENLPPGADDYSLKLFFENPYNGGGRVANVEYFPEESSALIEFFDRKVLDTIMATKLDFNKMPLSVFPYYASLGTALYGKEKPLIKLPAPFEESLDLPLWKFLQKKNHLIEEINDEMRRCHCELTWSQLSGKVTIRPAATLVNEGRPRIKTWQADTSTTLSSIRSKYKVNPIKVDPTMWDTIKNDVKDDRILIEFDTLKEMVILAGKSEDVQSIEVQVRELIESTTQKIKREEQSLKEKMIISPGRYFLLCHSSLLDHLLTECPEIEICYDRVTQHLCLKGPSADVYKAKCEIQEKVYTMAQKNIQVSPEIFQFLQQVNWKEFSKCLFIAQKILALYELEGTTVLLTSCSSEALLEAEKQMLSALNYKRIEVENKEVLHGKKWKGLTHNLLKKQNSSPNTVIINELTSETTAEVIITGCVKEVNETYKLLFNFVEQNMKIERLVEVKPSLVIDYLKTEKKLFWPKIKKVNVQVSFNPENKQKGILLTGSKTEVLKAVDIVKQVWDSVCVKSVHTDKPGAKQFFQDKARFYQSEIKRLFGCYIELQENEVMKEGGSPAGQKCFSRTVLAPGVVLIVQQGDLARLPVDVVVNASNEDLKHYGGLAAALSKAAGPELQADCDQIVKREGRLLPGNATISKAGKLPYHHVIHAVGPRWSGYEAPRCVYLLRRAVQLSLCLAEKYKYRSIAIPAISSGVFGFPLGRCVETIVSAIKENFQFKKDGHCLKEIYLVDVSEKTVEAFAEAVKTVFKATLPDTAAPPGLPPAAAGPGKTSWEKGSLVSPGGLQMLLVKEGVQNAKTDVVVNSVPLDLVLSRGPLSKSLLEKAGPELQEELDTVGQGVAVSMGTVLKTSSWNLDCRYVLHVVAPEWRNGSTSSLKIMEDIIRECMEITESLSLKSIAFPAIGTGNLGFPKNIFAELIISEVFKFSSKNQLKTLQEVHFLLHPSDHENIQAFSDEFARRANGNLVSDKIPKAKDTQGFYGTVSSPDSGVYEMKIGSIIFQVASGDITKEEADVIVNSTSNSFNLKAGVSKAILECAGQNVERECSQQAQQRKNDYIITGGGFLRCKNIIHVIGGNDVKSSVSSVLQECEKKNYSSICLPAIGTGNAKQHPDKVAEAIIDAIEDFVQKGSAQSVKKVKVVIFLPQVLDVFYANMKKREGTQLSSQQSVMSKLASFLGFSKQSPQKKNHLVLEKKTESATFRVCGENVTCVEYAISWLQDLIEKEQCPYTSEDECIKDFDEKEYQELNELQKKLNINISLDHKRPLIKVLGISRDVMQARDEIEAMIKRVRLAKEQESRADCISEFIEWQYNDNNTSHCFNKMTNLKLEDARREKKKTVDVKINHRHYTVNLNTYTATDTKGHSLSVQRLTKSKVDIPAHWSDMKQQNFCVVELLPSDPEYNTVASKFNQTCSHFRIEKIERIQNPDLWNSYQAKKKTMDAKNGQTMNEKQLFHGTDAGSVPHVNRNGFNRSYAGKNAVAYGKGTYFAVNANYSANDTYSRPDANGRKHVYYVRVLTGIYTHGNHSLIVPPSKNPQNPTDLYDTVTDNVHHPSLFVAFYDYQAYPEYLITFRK
Sequence of Protein mono-ADP-ribosyltransferase PARP10 (Q53GL7 whole entry): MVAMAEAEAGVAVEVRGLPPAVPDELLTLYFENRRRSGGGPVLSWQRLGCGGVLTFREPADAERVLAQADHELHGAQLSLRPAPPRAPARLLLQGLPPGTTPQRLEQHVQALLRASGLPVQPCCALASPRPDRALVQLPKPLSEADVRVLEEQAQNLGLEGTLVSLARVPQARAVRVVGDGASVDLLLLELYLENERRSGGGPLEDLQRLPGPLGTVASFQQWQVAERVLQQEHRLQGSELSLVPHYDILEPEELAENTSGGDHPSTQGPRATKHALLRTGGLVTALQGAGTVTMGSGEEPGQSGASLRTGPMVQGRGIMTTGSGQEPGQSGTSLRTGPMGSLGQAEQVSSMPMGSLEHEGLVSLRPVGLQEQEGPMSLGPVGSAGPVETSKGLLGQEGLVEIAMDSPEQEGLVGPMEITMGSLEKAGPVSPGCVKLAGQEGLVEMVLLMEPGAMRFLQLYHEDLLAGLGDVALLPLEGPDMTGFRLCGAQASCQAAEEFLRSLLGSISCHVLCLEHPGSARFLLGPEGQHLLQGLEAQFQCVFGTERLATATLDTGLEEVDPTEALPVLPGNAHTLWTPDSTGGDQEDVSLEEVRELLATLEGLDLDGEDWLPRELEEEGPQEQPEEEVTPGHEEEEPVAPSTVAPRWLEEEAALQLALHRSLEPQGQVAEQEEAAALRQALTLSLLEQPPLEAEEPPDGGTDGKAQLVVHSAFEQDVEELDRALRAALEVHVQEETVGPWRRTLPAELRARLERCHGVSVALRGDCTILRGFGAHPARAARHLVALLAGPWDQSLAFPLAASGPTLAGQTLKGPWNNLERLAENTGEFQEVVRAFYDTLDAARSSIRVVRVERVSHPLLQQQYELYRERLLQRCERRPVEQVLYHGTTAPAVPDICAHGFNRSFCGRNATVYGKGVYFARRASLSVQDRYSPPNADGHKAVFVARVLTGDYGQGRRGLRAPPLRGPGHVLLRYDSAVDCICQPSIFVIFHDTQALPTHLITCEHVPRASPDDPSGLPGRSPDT
Sequence of Poly [ADP-ribose] polymerase tankyrase-1 (Homo sapiens) (O95271 whole entry): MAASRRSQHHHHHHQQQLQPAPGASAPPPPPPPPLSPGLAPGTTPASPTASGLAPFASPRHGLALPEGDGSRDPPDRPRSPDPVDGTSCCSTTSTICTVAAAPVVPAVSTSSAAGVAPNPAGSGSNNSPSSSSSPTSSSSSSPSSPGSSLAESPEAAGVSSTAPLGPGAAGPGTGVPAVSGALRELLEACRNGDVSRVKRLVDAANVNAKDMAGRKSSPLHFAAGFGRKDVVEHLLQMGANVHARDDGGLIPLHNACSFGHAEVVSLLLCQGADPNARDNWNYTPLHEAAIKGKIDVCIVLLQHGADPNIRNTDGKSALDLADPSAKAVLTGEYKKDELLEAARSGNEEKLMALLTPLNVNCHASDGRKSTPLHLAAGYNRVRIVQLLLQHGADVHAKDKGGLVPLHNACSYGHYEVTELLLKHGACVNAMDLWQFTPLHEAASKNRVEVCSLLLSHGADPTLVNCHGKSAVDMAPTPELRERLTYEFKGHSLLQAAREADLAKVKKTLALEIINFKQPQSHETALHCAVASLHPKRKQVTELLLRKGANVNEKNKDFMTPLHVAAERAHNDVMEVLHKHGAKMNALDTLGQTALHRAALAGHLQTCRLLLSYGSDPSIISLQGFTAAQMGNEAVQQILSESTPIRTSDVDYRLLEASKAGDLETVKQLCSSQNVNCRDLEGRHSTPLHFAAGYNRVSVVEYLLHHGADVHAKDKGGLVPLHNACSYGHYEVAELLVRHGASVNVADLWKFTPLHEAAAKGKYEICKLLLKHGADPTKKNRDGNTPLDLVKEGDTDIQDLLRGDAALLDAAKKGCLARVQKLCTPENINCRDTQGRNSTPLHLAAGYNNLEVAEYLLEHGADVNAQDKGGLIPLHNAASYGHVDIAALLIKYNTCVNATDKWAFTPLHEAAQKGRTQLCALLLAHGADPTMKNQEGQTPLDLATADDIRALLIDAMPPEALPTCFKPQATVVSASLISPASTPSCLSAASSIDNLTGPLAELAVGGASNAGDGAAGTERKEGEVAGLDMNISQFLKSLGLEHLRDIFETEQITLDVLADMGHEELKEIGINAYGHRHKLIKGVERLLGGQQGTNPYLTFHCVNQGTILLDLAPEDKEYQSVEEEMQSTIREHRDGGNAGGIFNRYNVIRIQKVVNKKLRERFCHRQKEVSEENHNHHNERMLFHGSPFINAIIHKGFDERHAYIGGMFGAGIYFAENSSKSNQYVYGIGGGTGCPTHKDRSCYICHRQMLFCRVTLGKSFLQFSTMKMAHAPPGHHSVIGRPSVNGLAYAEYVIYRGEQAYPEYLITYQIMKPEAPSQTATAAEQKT
Sequence of Protein mono-ADP-ribosyltransferase PARP16 (Homo sapiens) (Q8N5Y8 whole entry): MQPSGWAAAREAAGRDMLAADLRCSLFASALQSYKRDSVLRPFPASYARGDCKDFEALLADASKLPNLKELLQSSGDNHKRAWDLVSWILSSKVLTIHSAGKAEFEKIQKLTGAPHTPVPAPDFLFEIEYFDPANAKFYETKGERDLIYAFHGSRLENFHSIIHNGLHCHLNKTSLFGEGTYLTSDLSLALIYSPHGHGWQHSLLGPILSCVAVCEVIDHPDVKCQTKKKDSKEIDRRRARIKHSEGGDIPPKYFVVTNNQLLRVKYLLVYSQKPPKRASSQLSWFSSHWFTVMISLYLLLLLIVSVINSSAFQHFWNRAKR
Sequence of Protein mono-ADP-ribosyltransferase PARP3 (Homo sapiens) (Q9Y6F1 whole entry): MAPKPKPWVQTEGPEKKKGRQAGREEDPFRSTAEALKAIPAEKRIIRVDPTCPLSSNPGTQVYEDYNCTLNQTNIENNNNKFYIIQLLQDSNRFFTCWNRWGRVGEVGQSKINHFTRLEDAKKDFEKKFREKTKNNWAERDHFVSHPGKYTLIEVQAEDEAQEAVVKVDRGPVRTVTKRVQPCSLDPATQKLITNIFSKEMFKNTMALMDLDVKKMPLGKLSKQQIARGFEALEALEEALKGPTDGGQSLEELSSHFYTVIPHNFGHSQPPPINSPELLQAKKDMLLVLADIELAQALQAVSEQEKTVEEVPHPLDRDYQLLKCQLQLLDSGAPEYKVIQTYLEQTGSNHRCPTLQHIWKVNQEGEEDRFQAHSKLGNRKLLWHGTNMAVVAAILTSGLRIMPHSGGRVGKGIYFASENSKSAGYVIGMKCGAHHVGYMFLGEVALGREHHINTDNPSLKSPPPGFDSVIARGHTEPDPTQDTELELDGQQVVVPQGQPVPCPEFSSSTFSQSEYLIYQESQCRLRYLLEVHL

SMILES: CCc1cc2ncc(CN3CCN(c4ccc(C(=O)NC)nc4)CC3)cc2[nH]c1=O [SARUPARIB]
- Kd(app) [1]: Active
- CL free [2]: 3.2 mL/min/kg
- clearance [3]: 0.23 mL/min/kg
- logD (physchem): 1.9
- solubility [4]: 50 µM (≈ 20.3 µg/mL)
- bioavailability [5]: 132%
- half-life [6]: 8 h
- Activity [7]: 23%
- Kd(app) [8]: Active
- CL free [9]: 2.1 mL/min/kg
- bioavailability [10]: 73%
- Kd(app) [11]: Active
- Vd [12]: 0.3 L/kg
- Kd(app) [13]: Active
- half-life [14]: 4.6 h
- microsomal CLint (in vitro [15]): < 3 µL/min/mg
- Vd [16]: 0.38 L/kg
- Kd(app) [17]: Active
- Activity [18]: Toxic
- bioavailability [19]: 122%
- half-life [20]: 7.1 h
- IC50 (DLD-1): 2 nM
- bioavailability [21]: 77%
- Vd [22]: 0.17 L/kg
- viability at 120 h, 0.1 µM [23]: 46%
- clearance [24]: 1.1 mL/min/kg
- clearance [25]: 0.35 mL/min/kg
- hepatocyte CLint [26]: < 1 µL/min/1e6 cells
- fraction unbound (in vitro [27]): 0.032
- half-life [28]: 10 h
- fraction unbound (in vitro [29]): 0.17
- Activity [30]: 84%
- Activity [31]: 86%
- CL free [32]: 20 mL/min/kg
- Kd [33]: > 10000 nM
- Activity [34]: Dde
- fraction unbound (in vitro [35]): 0.043
- CL free [36]: 34 mL/min/kg
- Kd(app) [37]: Active
- Activity [38]: 73%
- Kd(app) [39]: Active
- Vd [40]: 0.38 L/kg
- Kd(app) [41]: Active
- clearance [42]: 0.84 mL/min/kg
